In US11447523B2, “Methods for reducing CD36 expression” (Cornell Research Foundation, Inc., priority 2005, dated 2022):
“Also recorded” adds a separate entry of the source. Square brackets hold non-standard residues; d marks the D form. Ends that are not written are not given here.

How the values were obtained:
CD36 [1] = assay: CD36 immunostaining in isolated hearts after cold ischemic storage and warm reperfusion; set-up: species or system guinea pig; settings: 1 nM SS-31 or 100 nM SS-20 in St. Thomas solution, 18 h at 4° C., 90 min reperfusion at 34° C.
Experimental: Isolated guinea pig hearts were perfused with St. Thomas solution alone, or St. Thomas solution containing 1 nM SS-31 or 100 nM SS-20, for 3 min. and then stored in the same solution at 4° C. for 18 hours. After ischemic storage, hearts were reperfused with 34° C. Kreb-Henseleit solution for 90 min. Hearts freshly isolated from guinea pigs were used as controls.
The hearts were fixed in paraffin and sliced for immunostaining with an anti-CD36 rabbit polyclonal antibody. Two sections are shown for each treatment group. […] The “background” (FIGS. 12A and 12B) represents two sections from a normal non-ischemic heart that was not treated with the primary antibody. “Normal heart” (FIGS. 12C and 12D) represents two sections obtained from a non-ischemic heart.

[2] = tested on: isolated guinea pig hearts; assay: Isolated hearts: lipid peroxidation, endothelial apoptosis and coronary flow after cold ischemia and warm reperfusion; settings: 1 nM SS-31 or 100 nM SS-20 in St. Thomas solution; for HNE staining (lipid peroxidation) in stored hearts / endothelial apoptosis in stored hearts / coronary flow restored, of pre-ischemic flow: 18 h at 4° C., 90 min reperfusion; for coronary flow restored, of pre-ischemic flow: pre-ischemic control = 100%; for coronary flow (in words): 18 h cold ischemia, warm reperfusion
Experimental: Guinea pig hearts were perfused with a cardioplegic solution (St. Thomas solution) alone or St. Thomas solution containing either 1 nM SS-31 or 100 nM SS-20 for 3 min. and then subjected to 18 hours of cold ischemia (4° C.). The hearts were then reperfused with Krebs Henseleit buffer at 34° C. for 90 min. Immunohistochemical analysis of 4-hydroxynonenol (HNE)-modified proteins in paraffin sections from tissue slices were performed by incubation with an anti-HNE antibody (Santa Cruz) and a fluorescent secondary antibody. […] HNE staining was reduced in hearts stored in SS-31 (FIG. 13C) or SS-20 (FIG. 13D).
Guinea pig heats were perfused with a cardioplegic solution (St. Thomas solution) alone or St. Thomas solution containing either 1 nM SS-31 or 100 nM SS-20 for 3 min. and then subjected to 18 hours of cold ischemia (4° C.). The hearts were then reperfused with Krebs Henseleit buffer at 34° C. for 90 min. After deparaffinization, sections were incubated with deoxynucleotidyl transferase (Tdt) with digoxigenin-dNTP for 1 hour. The reaction was stopped with terminating buffer. A fluorescent anti-digoxigenin antibody was then applied.
A significant improvement of coronary blood flow after prolonged cold ischemic storage and warm reperfusion occurred (FIG. 15). Guinea pigs hearts were perfused with a cardioplegic solution (St. Thomas solution) alone or St. Thomas solution containing either 1 nM SS-31 (FIG. 15A) or 100 nM SS-20) (FIG. 15B) for 3 min. and then subjected to 18 hours of cold ischemia (4° C.). The hearts were then reperfused with Krebs Henseleit buffer at 34° C. for 90 min.

CD36 [3] = assay: oxLDL-induced CD36 mRNA expression in mouse peritoneal macrophages; assay type: cell-based
Experimental: CD36 expression is regulated at the transcriptional level by various cellular stimuli, including glucose and oxLDL. Macrophages were harvested from mice peritoneal cavity and culture overnight in the absence or presence of oxLDL (50 μg/ml) for 48 h.

[4] = tested on: mouse peritoneal macrophages; assay: oxLDL-induced apoptosis of macrophages; assay type: cell-based; settings: SS-31 1 nM concurrent with oxLDL (oxLDL alone 32.8%, no oxLDL 6.7%)
Experimental: Incubation of macrophages with oxLDL increased apoptotic cells from 6.7% to 32.8%.

[5] = tested on: mouse peritoneal macrophages; assay: oxLDL-induced foam cell formation (oil red O) in macrophages; assay type: cell-based; settings: SS-31 1 μM, oxLDL 48 h
From the text: Foam cell is indicated by oil red O which stains lipid droplets red.

diabetic mice = assay: Streptozotocin (STZ)-induced diabetic mice, renal damage; assay type: in vivo, CD-1 mice
Experimental: Streptozotocin (STZ) was used to induce diabetes in mice. Three groups of CD-1 mice were studied. Group I—no STZ treatment; Group II—STZ (50 mg/kg, ip) was given once a day for 5 d; Group III—STZ (50 mg/kg, ip) was given once a day for 5 d, and SS-31 (3 mg/kg, ip) was given once a day for 16 d. […] By week 3, blood glucose values were: Group I (10.6.noteq.0.27 mmol/L); Group II (24.5.noteq.1.15 mmol/L); Group III (21.3 1.48 mmol/L). Animals were sacrificed after 3 weeks and kidney tissues preserved for histopathology. Kidney sections were examined by Periodic Schiff (PAS) staining for renal tubular brush border.
In mice not treated with STZ, the renal brush border in the cortex was stained red with PAS (FIG. 16A, see white arrows).
Kidney sections were examined for apoptosis using the TUNEL assay. After deparaffinization, sections were incubated with deoxynucleotidyl transferase (Tdt) with digoxigenin-dNTP for 1 hour. The reaction was stopped with terminating buffer. A fluorescent anti-digoxigenin antibody was then applied.

CD36 [6] = assay: CD36 protein expression by western blot in mouse peritoneal macrophages; assay type: cell-based; settings: P<0.01
From the text: Other controls included CD36 expression from mouse heart (H) and macrophages obtained from CD36 knockout mice (KO). The amount of CD36 protein was normalized to β-actin.

[7] = tested on: CD36 knock-out mice subjected to acute cerebral ischemia; assay: Acute cerebral ischemia in CD36 knockout mice; assay type: in vivo, mouse; settings: CD36 KO mice
Experimental: CD36 knockout (CD36 KO) mice were subjected to acute cerebral ischemia as described under Example 2. CD36 KO mice were given either saline vehicle (Veh) (ip, n=5) or SS-31 (2 mg/kg, i.p. n=5) at 0, 6, 24 and 48 h after 30 min ischemia.

[8] = tested on: obstructed kidney after UUO; assay: Kidney damage after unilateral ureteral obstruction (HNE, TUNEL, ED1 macrophages, Masson's trichrome); assay type: in vivo, Sprague-Dawley rats; settings: rats, SS-31 1 mg/kg ip one day before UUO and daily for 14 days
Experimental: Rats were then killed, kidneys removed, embedded in paraffin and sectioned. Slides were incubated with anti-HNE rabbit IgG and a biotin-linked anti-rabbit IgG was used as secondary antibody. The slides were developed with DAB. Lipid peroxidation, which was increased by UUO, was reduced by SS-31 treatment (FIG. 8).
Rats were then killed, kidneys removed, embedded in paraffin and sectioned. To quantitate nuclei with fragmented DNA, the TUNEL assay were performed with in situ TUNEL kit (Intergen, Purchase, N.Y.). Slides were developed with DAB and counterstained with 10% hematoxylin.
Rats were treated with either saline (n=6) or SS-31 (1 mg/kg ip, n=6) one day prior to induction of UUO, and once a day for 14 days after UUO. Rats were then killed, kidneys removed, embedded in paraffin and sectioned. Slides were treated with monoclonal antibody for ED1 macrophage (1:75; Serotec). Horseradish-peroxidase-linked rabbit anti-mouse secondary antibody (Dako) was used for macrophage detection. Sections were then counterstained with 10% hematoxylin.
Rats were treated with either saline (n=6) or SS-31 (1 mg/kg ip, n=6) one day prior to induction of UUO, and once a day for 14 days after UUO. Rats were then killed, kidneys removed, embedded in paraffin and sectioned. Slides were stained with hematoxylin and eosin and Masson's trichome for interstitial fibrosis (blue stain).

[9] = tested on: wild-type mice subjected to acute cerebral ischemia; assay: Acute cerebral ischemia (30 min middle cerebral artery occlusion) in wild-type mice; assay type: in vivo, mouse; settings: WT mice
Experimental: Cerebral ischemia was induced by occlusion of the right middle cerebral artery for 30 min. Wild-type (WT) mice were given either saline vehicle (Veh) (ip, n=19) or SS-31 (2 mg/kg or 5 mg/kg, ip, n=6) at 0, 6, 24 and 48 h after ischemia. Mice were killed 3 days after ischemia. Brains were removed, frozen, and sectioned. Brain sections were stained by the Nissl stain. Infarct volume and hemispheric swelling was determined using an image analyzer. Data were analyzed by one-way ANOVA with posthoc analysis.
(*P<0.05 compared to Veh).

CD36 [10] = assay: CD36 immunostaining on renal tubular cells after unilateral ureteral obstruction (UUO); assay type: in vivo, Sprague-Dawley rats; settings: rats, SS-31 1 mg/kg ip one day before UUO and daily for 14 days
Experimental: UUO was performed in Sprague-Dawley rats. The rats were treated with saline (ip, n=6) or SS-31 (1 mg/kg ip, n=6) one day prior to induction of UUO, and once a day for 14 days after UUO. Rats were killed, kidneys removed, embedded in paraffin and sectioned. The slides were treated with the anti-CD36 polyclonal IgG (Santa Cruz #sc-9154; 1:100 with blocking serum) at room temperature for 1.5 hours. The slides were then incubated with the second antibody conjugated with biotin (anti-rabbit IgG-G1; ABC kit, PK-6101) at room temperature for 30 min. The slides were then treated with avidin, developed with DAB and counterstained with 10% hematoxylin. The contralateral unobstructed kidney served as the control for each animal.

CD36 [11] = assay: CD36 mRNA (real time PCR) in post-ischemic brain of wild-type mice; assay type: in vivo, mouse; settings: WT mice, SS-31 5 mg/kg ip at 0 and 6 h after 30 min ischemia
Experimental: Wild-type mice were given saline vehicle (Veh, i.p., n=6) or SS-31 (5 mg/kg, i.p., n=6) at 0 and 6 h after 30 min ischemia, and CD36 mRNA levels were determined using real time PCR.

[12] = SS-31 2 mg/kg ip at 0, 6, 24, 48 h, vs saline
[13] = SS-31 2 mg/kg or 5 mg/kg ip at 0, 6, 24, 48 h after ischemia, vs saline, P<0.05

## F[dR]FK-NH2 [SS-20]
CD36 [1]
  CD36 staining in stored hearts: significantly reduced; also recorded: did not show the upregulation of CD36 expression
[2]
  HNE staining (lipid peroxidation) in stored hearts: reduced
  endothelial apoptosis in stored hearts: Apoptotic cells were not observed
  coronary flow restored, of pre-ischemic flow: approximately 80%
  coronary flow (in words): preserves coronary flow

## D-Arg-2′6′Dmt-Lys-Phe-NH2 [SS-31]
CD36 [3]; SS-31 10 nM or 1 μM, oxLDL 50 μg/ml, 48 h
  oxLDL-induced up-regulation of CD36 mRNA: abolished the up-regulation of CD36; also recorded: reduced oxLDL-induced CD36 mRNA expression
CD36 [3]; SS-31 alone, without oxLDL
  CD36 expression, peptide by itself: had no effect on CD36 expression
[4]
  percentage of apoptotic cells induced by oxLDL: 20.8%
[5]
  oxLDL-induced foam cell formation: prevented oxLDL-induced foam cell formation; also recorded: reduced
CD36 [1]
  CD36 staining in stored hearts: significantly reduced; also recorded: did not show the upregulation of CD36 expression
Diabetic mice; Group III: STZ 50 mg/kg ip 5 d + SS-31 3 mg/kg ip daily 16 d (STZ alone 24.5, no STZ 10.6)
  blood glucose by week 3: 21.3 mmol/L
Diabetic mice; STZ mice, SS-31 3 mg/kg ip daily
  effect on blood glucose (in words): without affecting blood glucose
Diabetic mice; STZ mice, SS-31 3 mg/kg ip daily, 3 weeks
  architecture of the proximal renal tubules: architecture of the proximal renal tubules was preserved
Diabetic mice; STZ mice, SS-31 3 mg/kg ip daily, 3 weeks, 3 mg/kg
  apoptotic cells in proximal tubule (TUNEL): dramatically reduced apoptotic cells in the proximal tubule; also recorded: inhibit tubular cell apoptosis; also recorded: significantly reduced
CD36 [6]; SS-31 1 μM concurrent with 25 μg/ml oxLDL, 48 h
  oxLDL-induced upregulation of CD36 protein expression: significantly inhibited the upregulation of CD36 protein expression; also recorded: reduced
CD36 [6]; SS-31 1 μM, no oxLDL, normalized to β-actin
  CD36 protein expression versus vehicle control: significantly reduced CD36 protein expression
[7]; SS-31 2 mg/kg ip
  GSH depletion in the ipsilateral cortex: failed to further prevent GSH depletion; also recorded: did not reduce GSH depletion
[7]; [12]
  hemispheric swelling: no effect
  infarct volume: no effect in reducing infarct volume
[8]
  tubular dilation: Tubular dilation was also observed
[8]; P<0.001, 1 mg/kg
  number of apoptotic cells (TUNEL) in obstructed kidney: significantly reduced; also recorded: reduced tubular cell apoptosis
[8]; P<0.05, 1 mg/kg
  interstitial fibrosis in obstructed kidney: significantly less fibrosis; also recorded: reduced interstitial fibrosis
  macrophage infiltration (ED1) in obstructed kidney: significantly reduced; also recorded: reduced macrophage infiltration
[8]; vs saline, 1 mg/kg
  lipid peroxidation (HNE stain) in obstructed kidney: significantly less HNE stain; also recorded: reduces lipid peroxidation
[2]
  HNE staining (lipid peroxidation) in stored hearts: reduced
  endothelial apoptosis in stored hearts: Apoptotic cells were not observed
  coronary flow restored, of pre-ischemic flow: approximately 80%
  coronary flow (in words): preserves coronary flow
[9]; SS-31 2 mg/kg ip at 0, 6, 24, 48 h
  depletion of GSH in the striatum: reduced by SS-31 treatment but did not reach statistical significance
[9]; SS-31 2 mg/kg ip at 0, 6, 24, 48 h, 2 mg/kg
  depletion of GSH in the ipsilateral cortex: significantly reduced; also recorded: reduced the decrease in reduced glutathione (GSH)
[9]; [13]
  hemispheric swelling: significant reduction; also recorded: reduced
  infarct volume: significant reduction in infarct volume; also recorded: reduced infarct volume
CD36 [10]
  CD36 expression on tubular cells of obstructed kidney: significant reduction in CD36 expression; also recorded: suppresses the upregulation of CD36; also recorded: decreases CD36 expression
CD36 [11]
  CD36 mRNA in the ipsilateral brain: significantly reduced; also recorded: reduced CD36 mRNA expression
